Assay results as given in paper PMC9232612, “A phase 1b randomised controlled trial of a glucagon-like peptide-1 and glucagon receptor dual agonist IBI362 (LY3305677) in Chinese patients with type 2 diabetes” (Nature Communications, 2022).
Read-outs that look alike come from different tables or passages of the source.

Tests used:
[1] = Non-compartmental pharmacokinetics of IBI362 in plasma; type: in vivo; conditions: human, sc; for AUC(0-t): n=8, read-out: AUC0-168h, geometric mean (CV%); for Cmax: n=8, read-out: Cmax, geometric mean (CV%)
Text: (§1) Standard non-compartmental pharmacokinetics methods were used to analyze IBI362 plasma concentration data using Pkanalix 2020R1 (Lixoft, Antony, France). Secondary efficacy outcomes included change from baseline to week 12 in HbA1c, fasting plasma glucose (FPG), fasting insulin levels, change from baseline to week 12 in post-mixed-meal tolerance test (post-MTT) glucose, insulin, C peptide, GLP-1 and OXM levels, as well as seven-point self-measured blood glucose (SMBG) profile.
Safety analyses were done in the safety population (defined as all patients who received at least one dose of the study treatment). Pharmacokinetic analyses were done in the pharmacokinetic population (defined as all patients who received at least one dose of IBI362 and had at least one valid plasma concentration assessment). Efficacy analyses were done in the efficacy population (defined as all patients who received at least one dose of the study treatment and had baseline and at least one post-baseline HbA1c assessment). Immunogenicity analyses were done in the immunogenicity population (defined as all patients who received at least one dose of the study treatment and had at least one post-baseline ADA result). […]
Table 3. PK/PD Sampling Schedule
sampling time hour hour hour hour 1 hour hour hour for
collection - - min min ± 30 mi 1h 2h 3h 4h 5h - ± 2h - min min - ± 2h - min min - - 2h 12h
Drug √ √ √ √ √ √ √ √ √ √ √ √ √ √ √
PK Sampling ● ● ● ● ● ● ● ● ● ● ● ● ● ● ● ● ● ● ● ● ● ● ●
1. PK sampling time points: Week 1 (intensive PK) PK sampling points: within 1 h before administration, 4 h ± 10 min, 8 h ± 20 min, 12 h ± 30 min, 24 h ± 1 h (Day 2), 48 h ± 2 h (Day 3), 72 h ± 3 h (Day 4), 96 h
± 4 h (Day 5), 120 h ± 5 h (Day 6) and within 1 h before administration on Day 8. Week 4: D22 for 48h ± 2h. Sparse sampling in Week 5: within 1 h before administration on Day 29, 4 h ± 10 min, 8 h ± 20 min after
administration and within 1 h before administration on Day 36. Week 8: D50 48h ± 2h. Sparse sampling in Week 9: within 1 h before administration on Day 57, 4 h ± 10 min, 8 h ± 20 min after administration and within
1 h before administration on Day 64. Sparse sampling at Week 12: Within 1h before administration, 48h ± 2h after administration (D80) and 168h ± 12h after administration (D85) on D78. If a patient fails to complete
the study and withdraws from the study prematurely, PK samples will be collected at early termination visit. Three (3) mL samples will be collected at each blood collection site and detailed procedures will be provided
in the central laboratory manual.
2. PD sampling (insulin/C-peptide/plasma glucose/glucagon/OXM/GLP-1) points: Week 1: within 48 hours ± 2 hours after dosing (Day 3), within 1 hour before dosing on Day 8; Week 5: within 1 hour before dosing
on Day 29; Week 9: within 1 hour before dosing on Day 57; Week 12: within 1 hour before dosing on D78 and 168 hours ± 12 hours after dosing (D85). PD samples will be collected at the early termination visit, if a
patient withdraw early due to failure to complete the study. All PD sampling will be performed in the fasted state. A total of 9 mL will be collected from each blood collection site, and the detailed operation process will
be described in the central laboratory manual.

[2] = Immunogenicity: anti-IBI362 antibody (ADA) and neutralizing antibody; type: in vivo, human
Text: as §1
Safety analyses were done in the safety population (defined as all patients who received at least one dose of the study treatment). Pharmacokinetic analyses were done in the pharmacokinetic population (defined as all patients who received at least one dose of IBI362 and had at least one valid plasma concentration assessment). Efficacy analyses were done in the efficacy population (defined as all patients who received at least one dose of the study treatment and had baseline and at least one post-baseline HbA1c assessment). Immunogenicity analyses were done in the immunogenicity population (defined as all patients who received at least one dose of the study treatment and had at least one post-baseline ADA result).
IBI362 Innovent Biologics (Suzhou) Co., Ltd. CIBI362A101
[…] Within 1 hour before D57 administration in Week 9; […]

[3] = tested on: diet-induced obese mice; conditions: preclinical data quoted in the protocol, ref not given; cited from earlier work
Text: page 42: IBI362 Innovent Biologics (Suzhou) Co., Ltd. CIBI362A101 3%, abdominal obesity [waist circumference ≥ 90 cm (male) or ≥ 85 cm (female)] patients up to 45. 4% [15]. Although the occurrence of obesity is low compared with Caucasians, body fat tends t o accumulate in the abdominal cavity which is more likely to form abdominal obesity. Weight gain is an independent risk factor for the development of T2DM. Increased body weight or waist circumference can aggravate insulin resistance, increase the risk of T2DM, and the difficulty of glycemic control. Compared with patients with obesity ...

[4] = after the first dose (1.0 mg s.c.), 3.0 mg cohort
[5] = after the first dose (1.5 mg s.c.), 4.5 mg cohort
[6] = after the first dose (2.0 mg s.c.), 6.0 mg cohort

CC(C)C[C@H](NC(=O)[C@H](CC(C)C)NC(=O)[C@H](Cc1c[nH]c2ccccc12)NC(=O)[C@H](CCC(=O)O)NC(=O)[C@@H](NC(=O)[C@H](Cc1ccccc1)NC(=O)[C@H](CCC(=O)O)NC(=O)[C@H](CCCCNC(=O)COCCOCCNC(=O)COCCOCCNC(=O)CC[C@H](NC(=O)CCCCCCCCCCCCCCCCCCC(=O)O)C(=O)O)NC(=O)[C@H](C)NC(=O)[C@H](CCCCN)NC(=O)[C@H](CCCCN)NC(=O)[C@H](CCC(=O)O)NC(=O)[C@H](CC(=O)O)NC(=O)[C@H](CC(C)C)NC(=O)[C@H](Cc1ccc(O)cc1)NC(=O)[C@H](CCCCN)NC(=O)[C@H](CO)NC(=O)[C@H](Cc1ccc(O)cc1)NC(=O)[C@H](CC(=O)O)NC(=O)[C@H](CO)NC(=O)[C@@H](NC(=O)[C@H](Cc1ccccc1)NC(=O)[C@@H](NC(=O)CNC(=O)[C@H](CCC(N)=O)NC(=O)C(C)(C)NC(=O)[C@@H](N)Cc1c[nH]cn1)[C@@H](C)O)[C@@H](C)O)C(C)C)C(=O)N[C@@H](CCC(=O)O)C(=O)NCC(=O)NCC(=O)N1CCC[C@H]1C(=O)N[C@@H](CO)C(=O)N[C@@H](CO)C(=O)NCC(N)=O [IBI362]
Tmax ([1]; after first s.c. dose, all IBI362 cohorts, n=24, read-out: median Tmax): ~72 h
AUC(0-t) [1, 4]: 12300 ng·h/mL
Cmax [1, 4]: 89.5 ng/mL
Tmax ([1]; after the first dose (1.0 mg s.c.), 3.0 mg cohort, n=8, read-out: Tmax, median (range)): 48.2 h
AUC(0-t) [1, 5]: 16500 ng·h/mL
Cmax [1, 5]: 109 ng/mL
Tmax ([1]; after the first dose (1.5 mg s.c.), 4.5 mg cohort, n=8, read-out: Tmax, median (range)): 72.2 h
AUC(0-t) [1, 6]: 22100 ng·h/mL
Cmax [1, 6]: 170 ng/mL
Tmax ([1]; after the first dose (2.0 mg s.c.), 6.0 mg cohort, n=8, read-out: Tmax, median (range)): 84 h
patients who developed anti-IBI362 antibody ([2]; all IBI362 cohorts, n=24 (four patients)): 16.7%
neutralizing antibodies ([2]; post-baseline samples): No neutralizing antibodies were detected
weight loss effects (decreased appetite, weight loss) [3]: significant weight loss effects
